# Target: T1, MRE11 (Saccharomyces cerevisiae, UniProt P32829)
# T1 construct: made in house; host or cells: S. cerevisiae protease-deficient strain BJ5464
# T1 sequence (P32829 1-692): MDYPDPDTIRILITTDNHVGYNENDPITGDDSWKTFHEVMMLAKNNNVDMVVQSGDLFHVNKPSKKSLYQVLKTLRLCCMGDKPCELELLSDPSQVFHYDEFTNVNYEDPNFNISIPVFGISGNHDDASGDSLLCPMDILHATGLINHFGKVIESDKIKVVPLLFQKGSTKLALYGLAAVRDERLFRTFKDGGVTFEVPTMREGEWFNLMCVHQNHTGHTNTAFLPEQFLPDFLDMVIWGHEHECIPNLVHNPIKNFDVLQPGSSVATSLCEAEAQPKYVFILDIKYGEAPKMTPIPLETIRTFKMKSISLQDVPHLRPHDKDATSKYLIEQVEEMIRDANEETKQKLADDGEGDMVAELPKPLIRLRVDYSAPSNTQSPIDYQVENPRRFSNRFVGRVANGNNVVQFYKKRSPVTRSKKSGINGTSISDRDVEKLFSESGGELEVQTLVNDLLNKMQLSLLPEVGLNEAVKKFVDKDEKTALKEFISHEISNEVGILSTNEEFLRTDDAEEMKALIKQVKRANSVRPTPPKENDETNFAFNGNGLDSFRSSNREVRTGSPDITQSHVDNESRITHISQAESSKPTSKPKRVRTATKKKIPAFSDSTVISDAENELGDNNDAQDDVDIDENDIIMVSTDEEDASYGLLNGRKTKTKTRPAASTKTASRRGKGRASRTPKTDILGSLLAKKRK
# Experiment: Nuclease inhibition assay, MRE11 (5′ flap fluorescent DNA substrate, gel readout)
# Format: biochemical, yeast
# Conditions: 5 nM enzyme, 5 nM 5′ flap substrate, 15 min at 30° C.
# From the text: In vitro assays were used for the determination of compound's IC50 values for inhibition of individual nucleases, i.e., MUS81/EME1, FEN1, EXO1, and MRE11. To generate IC50 values, concentration of compound was plotted against relative nuclease activity (in %). The dose-response curves were generated from inhibition data, from 5 point serial dilutions of inhibitory compounds, each in triplicate and fitted to a standard sigmoid curve. IC50 values were derived by standard nonlinear regression analysis.
# All tested compounds were diluted in 100% DMSO (dimethylsulfoxide) to prepare working stocks with different concentrations. To keep the DMSO concentration constant in every reaction, always 0.5 μl of the compound stock was added to the reaction buffer. The reaction buffer differs depending on the enzyme tested. Also concentration of the compounds in the reaction depends on the particular enzyme, since the inhibitory effect of the compounds vary between the enzymes. Nevertheless, always doubling dilutions in the range 200-0.8 μM was used. The compound was added as the first component in the reaction buffer, followed by the enzyme addition. […]
# For this experiment we prepared short fluorescently labeled oligonucleotide-based DNA substrates with specific structures reflecting the biochemical activities of tested individual nucleases (Table 1). […] For visualization, each substrate was labeled by fluorescent dye (fluorescein), which can be detected in the gel using appropriate imaging system (FLA-9000, Fuji) with filters for particular wavelengths (excitation: 485 nm, emission: 535 nm).
# Nuclease assays were performed in reaction buffer specific for particular enzyme: MUS81/EME1 (50 mM Tris pH=7.5, 5 mM MgCl2, 1 mM DTT a 100 μg/ml BSA), MRE11 (30 mM Bis-Tris pH=7.0, 50 μg/ml BSA, 1 mM DTT a 250 μM MnCl2), EXO1 and FEN1 (50 mM Tris pH=7.5, 1 mM MgCl2, 1 mM DTT a 100 μg/ml BSA). […] Fluorescently labeled DNA was detected by FLA-9000 scanner (Fuji) and the result was evaluated using Multi-Gauge V3.2 software (Fuji). […]
row,Compound,IC50 [µM]
1,CCc1nn2c(N)c(-c3nc4ccccc4[nH]3)nnc2c1-c1ccc(F)cc1 [Preparative Example 5A],> 50
2,Nc1c(-c2nc3ccccc3[nH]2)nnc2cc(-c3ccccc3)nn12 [Preparative Example 5C],> 50
3,Nc1c(-c2nc3ccccc3[nH]2)nnc2cc(-c3cccc4ccccc34)nn12 [Preparative Example 5K],< 50
